In PMC9334755 (Cancer Biology & Medicine, 2021):
Read-outs that look alike come from different tables or passages of the source.

Columns and labels:
BLK = BLK (Homo sapiens, UniProt P51451); experiment: Protein kinase panel at 1 µM, BLK; assay type: biochemical
FLT3 = FLT3 (Homo sapiens, UniProt P36888); experiment: Protein kinase panel at 1 µM, FLT3; assay type: biochemical
FRK = FRK (Homo sapiens, UniProt P42685); experiment: Protein kinase panel at 1 µM, FRK; assay type: biochemical
FYN = FYN (Homo sapiens, UniProt P06241); experiment: Protein kinase panel at 1 µM, FYN; assay type: biochemical
ABL1 = ABL1 (Homo sapiens, UniProt P00519); experiment: Protein kinase panel at 1 µM, ABL1; assay type: biochemical
LYN A = LYN A (Homo sapiens, UniProt P07948); experiment: Protein kinase panel at 1 µM, LYN A; assay type: biochemical
LYN A, sequence (P07948 whole entry): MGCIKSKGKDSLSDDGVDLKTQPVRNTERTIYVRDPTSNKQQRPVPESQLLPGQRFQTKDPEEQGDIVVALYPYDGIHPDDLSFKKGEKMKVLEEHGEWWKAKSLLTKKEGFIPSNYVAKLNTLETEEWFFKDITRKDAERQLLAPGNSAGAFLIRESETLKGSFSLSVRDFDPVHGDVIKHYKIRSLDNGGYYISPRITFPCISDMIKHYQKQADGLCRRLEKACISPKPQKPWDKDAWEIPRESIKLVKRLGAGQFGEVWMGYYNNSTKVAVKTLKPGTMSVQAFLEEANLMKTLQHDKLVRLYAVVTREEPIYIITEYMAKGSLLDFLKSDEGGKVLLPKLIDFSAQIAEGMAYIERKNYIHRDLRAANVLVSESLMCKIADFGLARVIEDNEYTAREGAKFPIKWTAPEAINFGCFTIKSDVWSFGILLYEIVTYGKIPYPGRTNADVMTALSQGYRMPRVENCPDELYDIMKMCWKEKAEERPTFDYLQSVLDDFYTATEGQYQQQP

RET = RET (Homo sapiens, UniProt P07949); experiment: Protein kinase panel at 1 µM, RET; assay type: biochemical
Beagle dog = settings: in vivo
From the text: (§1) Table S9 Preclinical safety of SY-1530
(§2) Group Single-dose toxicity Multiple-dose toxicity
(§3) Animal Rat Beagle dog Rat Beagle dog

Rat = settings: in vivo
From the text: as §1, §2, §3

BTK = BTK (Homo sapiens, UniProt Q06187); experiment: Recovery of BTK activity after dilution (HTRF); assay type: biochemical; settings: BTK incubated with inhibitor for 2 h, mixture diluted
BTK, sequence (Q06187 whole entry): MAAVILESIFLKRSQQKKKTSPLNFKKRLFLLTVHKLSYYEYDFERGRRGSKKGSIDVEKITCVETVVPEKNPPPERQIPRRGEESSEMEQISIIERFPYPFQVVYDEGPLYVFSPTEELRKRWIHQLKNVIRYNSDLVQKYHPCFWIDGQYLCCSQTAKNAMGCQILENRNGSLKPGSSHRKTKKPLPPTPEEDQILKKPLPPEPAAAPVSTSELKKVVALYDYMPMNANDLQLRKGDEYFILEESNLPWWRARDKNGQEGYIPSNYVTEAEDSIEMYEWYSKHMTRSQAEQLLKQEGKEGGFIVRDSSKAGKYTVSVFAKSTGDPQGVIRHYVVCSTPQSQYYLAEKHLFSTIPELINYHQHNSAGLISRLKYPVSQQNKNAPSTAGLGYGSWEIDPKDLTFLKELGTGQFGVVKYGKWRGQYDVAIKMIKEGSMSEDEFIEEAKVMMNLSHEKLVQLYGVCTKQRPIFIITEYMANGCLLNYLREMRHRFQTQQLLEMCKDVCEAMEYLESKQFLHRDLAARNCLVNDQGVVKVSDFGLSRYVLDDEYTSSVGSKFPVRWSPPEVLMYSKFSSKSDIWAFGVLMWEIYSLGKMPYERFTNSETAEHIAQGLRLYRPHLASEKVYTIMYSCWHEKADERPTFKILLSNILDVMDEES
Protocol: In addition, after incubation of BTK with the inhibitors for 4 h, we performed liquid chromatography-tandem mass spectrometry (LC-MS/MS) to detect the abundance of the inhibitors.
(A) The compounds were incubated with BTK for 2 h, after which HTRF assays were performed with dilution of the mixture. The reactions were stopped at different time points. Data are shown as the mean ± SEM. (B) The content of the compounds was measured with LC-MS/MS after incubation with BTK for 4 h. Data are shown as the mean ± SEM (n = 3). Statistical analysis was performed with Student’s t-test (***P < 0.001). […] Cells were lysed and analyzed by Western blot and fluorescent gel scanning.

TMD8 xenografts = experiment: TMD8 tumor xenograft in SCID mice; assay type: in vivo
Protocol: TMD8 cells (1.0 × 10^7 cells in 100 µL of serum-free medium containing 40% Matrigel) were injected subcutaneously into SCID mice (6–8 weeks of age), and the tumor volume was monitored twice per week. […] The compounds were formulated in 0.5% methylcellulose containing 0.1% sodium lauryl sulfate. Tumor size and body weight were measured twice per week. All experiments were approved by the institutional animal care and use committee of Shouyao Holdings and were performed in accordance with the guidelines in the U.S. National Institutes of Health Guide for the Care and Use of Laboratory Animals (Approval No. CTA-2015063).
Figure 5 SY-1530 inhibits B-cell malignancy in vivo. (A–D) TMD8 cells were injected subcutaneously into SCID mice (6–8 weeks of age; 8 mice per group). […] Tumor size (A) and body weight (B) were measured […]. On the last day, mice were sacrificed 2.5 h after administration. LC-MS/MS was performed to measure the concentration of SY-1530 in plasma (C), and tumor samples were collected and analyzed with Western blot (D). QD represents administration once daily. Data are shown as mean ± SEM. Statistical analysis was performed with two-way analysis of variance (*P < 0.05; **P < 0.01; ***P < 0.001). […] Tumor size (E), body weight (F), SY-1530 concentration in the plasma (G), and protein expression in tumors (H) were measured. Data are shown as mean ± SEM. Statistical analysis was performed with two-way analysis of variance (*P < 0.05; **P < 0.01; ***P < 0.001).

[1] = rat, in vivo
[2] = rat
[3] = mouse
[4] = human
[5] = dog
EGFR = EGFR (Homo sapiens, UniProt P00533); experiment: HTRF kinase assay, EGFR
EGFR, sequence (P00533 25-1210): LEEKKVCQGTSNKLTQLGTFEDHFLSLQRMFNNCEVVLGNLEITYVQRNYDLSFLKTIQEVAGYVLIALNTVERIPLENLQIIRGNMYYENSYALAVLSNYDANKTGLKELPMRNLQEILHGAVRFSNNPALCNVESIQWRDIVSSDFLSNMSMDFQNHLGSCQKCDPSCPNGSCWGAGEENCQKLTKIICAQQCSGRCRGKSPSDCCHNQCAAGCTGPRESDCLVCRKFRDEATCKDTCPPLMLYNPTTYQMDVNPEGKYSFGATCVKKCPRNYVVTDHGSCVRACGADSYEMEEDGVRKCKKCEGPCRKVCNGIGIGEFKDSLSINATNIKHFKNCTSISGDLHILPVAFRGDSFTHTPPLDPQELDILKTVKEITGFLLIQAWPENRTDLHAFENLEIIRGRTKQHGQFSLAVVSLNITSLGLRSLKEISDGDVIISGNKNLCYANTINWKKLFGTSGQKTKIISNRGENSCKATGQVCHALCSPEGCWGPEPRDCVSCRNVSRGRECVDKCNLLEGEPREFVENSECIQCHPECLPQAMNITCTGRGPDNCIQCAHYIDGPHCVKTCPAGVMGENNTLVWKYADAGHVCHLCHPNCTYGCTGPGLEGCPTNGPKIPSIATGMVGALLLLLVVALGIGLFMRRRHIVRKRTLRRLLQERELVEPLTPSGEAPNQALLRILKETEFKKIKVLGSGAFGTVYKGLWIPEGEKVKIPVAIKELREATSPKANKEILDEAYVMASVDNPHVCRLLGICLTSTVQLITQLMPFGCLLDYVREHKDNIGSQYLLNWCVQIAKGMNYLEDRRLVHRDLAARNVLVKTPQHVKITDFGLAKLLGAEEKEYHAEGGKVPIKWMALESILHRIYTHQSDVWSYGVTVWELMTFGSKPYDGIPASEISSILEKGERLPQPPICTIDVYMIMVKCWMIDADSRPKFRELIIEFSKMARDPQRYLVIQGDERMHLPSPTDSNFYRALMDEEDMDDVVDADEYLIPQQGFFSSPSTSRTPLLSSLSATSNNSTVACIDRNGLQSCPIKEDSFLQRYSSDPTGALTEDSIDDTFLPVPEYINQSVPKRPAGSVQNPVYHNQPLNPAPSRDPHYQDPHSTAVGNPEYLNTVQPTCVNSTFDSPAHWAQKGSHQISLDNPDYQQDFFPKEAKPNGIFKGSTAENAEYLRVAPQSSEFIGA
Protocol: (§4) Homogeneous time-resolved fluorescence (HTRF) assays were performed with a HTRF® KinEASE™-TK kit (Trevigen).

HER2 = HER2 (Homo sapiens, UniProt P04626); experiment: HTRF kinase assay, HER2
HER2, sequence (P04626 23-1255): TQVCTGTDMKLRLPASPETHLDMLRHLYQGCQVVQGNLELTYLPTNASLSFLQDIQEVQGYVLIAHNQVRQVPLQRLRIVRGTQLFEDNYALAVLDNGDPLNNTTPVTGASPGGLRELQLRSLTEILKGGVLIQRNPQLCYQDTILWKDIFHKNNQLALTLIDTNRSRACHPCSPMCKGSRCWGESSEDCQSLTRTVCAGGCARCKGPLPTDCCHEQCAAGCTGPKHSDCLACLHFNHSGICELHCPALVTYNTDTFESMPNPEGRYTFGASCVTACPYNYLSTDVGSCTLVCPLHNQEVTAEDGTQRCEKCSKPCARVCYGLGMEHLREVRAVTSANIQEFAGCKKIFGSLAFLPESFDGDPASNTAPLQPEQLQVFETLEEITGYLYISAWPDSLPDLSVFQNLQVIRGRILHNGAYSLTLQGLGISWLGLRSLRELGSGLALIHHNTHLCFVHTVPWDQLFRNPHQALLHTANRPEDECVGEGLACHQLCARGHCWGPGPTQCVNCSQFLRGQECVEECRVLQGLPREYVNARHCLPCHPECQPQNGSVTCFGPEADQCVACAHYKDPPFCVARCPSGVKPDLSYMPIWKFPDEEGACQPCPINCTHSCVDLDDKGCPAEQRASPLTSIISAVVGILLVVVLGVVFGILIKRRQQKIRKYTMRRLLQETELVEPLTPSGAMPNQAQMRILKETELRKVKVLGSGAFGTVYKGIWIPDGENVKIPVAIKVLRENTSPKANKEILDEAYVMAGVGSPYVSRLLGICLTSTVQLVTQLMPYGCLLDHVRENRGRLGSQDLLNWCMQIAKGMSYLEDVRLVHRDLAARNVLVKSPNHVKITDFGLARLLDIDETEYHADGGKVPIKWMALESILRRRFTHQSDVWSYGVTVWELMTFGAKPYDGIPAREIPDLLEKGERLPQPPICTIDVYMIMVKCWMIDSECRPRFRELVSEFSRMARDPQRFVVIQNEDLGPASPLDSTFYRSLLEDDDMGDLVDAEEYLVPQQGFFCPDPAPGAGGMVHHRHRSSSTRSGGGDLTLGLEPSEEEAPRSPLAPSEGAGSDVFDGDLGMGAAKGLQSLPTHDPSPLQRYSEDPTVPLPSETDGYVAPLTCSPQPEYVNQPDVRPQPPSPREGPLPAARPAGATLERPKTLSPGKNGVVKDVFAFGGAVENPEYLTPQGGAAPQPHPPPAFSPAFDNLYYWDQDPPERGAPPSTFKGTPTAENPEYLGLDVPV
Protocol: as §4

[6] = IC50 SY-1530 over IC50 ibrutinib

FLT3, sequence (P36888 27-993): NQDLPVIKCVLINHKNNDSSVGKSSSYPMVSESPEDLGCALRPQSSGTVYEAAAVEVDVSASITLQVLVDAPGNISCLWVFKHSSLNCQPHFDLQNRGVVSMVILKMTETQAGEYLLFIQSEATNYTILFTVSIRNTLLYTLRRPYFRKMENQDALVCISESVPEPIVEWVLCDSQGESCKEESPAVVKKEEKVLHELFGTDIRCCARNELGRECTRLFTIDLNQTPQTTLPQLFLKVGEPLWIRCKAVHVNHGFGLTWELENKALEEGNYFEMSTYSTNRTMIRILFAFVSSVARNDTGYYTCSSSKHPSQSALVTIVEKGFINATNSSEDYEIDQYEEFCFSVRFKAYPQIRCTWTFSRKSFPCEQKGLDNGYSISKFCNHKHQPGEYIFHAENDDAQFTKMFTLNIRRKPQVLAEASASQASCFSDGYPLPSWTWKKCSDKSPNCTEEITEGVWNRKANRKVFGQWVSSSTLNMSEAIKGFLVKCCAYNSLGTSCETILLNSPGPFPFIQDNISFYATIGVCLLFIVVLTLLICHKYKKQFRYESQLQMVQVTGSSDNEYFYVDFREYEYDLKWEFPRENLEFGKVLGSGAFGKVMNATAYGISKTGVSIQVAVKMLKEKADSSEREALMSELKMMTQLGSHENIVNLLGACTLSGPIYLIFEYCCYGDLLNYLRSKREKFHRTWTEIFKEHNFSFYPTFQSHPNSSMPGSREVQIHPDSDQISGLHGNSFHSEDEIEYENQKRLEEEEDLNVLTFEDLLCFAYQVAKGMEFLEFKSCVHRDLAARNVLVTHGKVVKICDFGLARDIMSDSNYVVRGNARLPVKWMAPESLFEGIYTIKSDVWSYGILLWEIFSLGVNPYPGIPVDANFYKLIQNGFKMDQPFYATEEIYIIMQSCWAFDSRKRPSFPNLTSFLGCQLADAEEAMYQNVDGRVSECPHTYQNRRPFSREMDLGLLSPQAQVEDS
BLK, sequence (P51451 whole entry): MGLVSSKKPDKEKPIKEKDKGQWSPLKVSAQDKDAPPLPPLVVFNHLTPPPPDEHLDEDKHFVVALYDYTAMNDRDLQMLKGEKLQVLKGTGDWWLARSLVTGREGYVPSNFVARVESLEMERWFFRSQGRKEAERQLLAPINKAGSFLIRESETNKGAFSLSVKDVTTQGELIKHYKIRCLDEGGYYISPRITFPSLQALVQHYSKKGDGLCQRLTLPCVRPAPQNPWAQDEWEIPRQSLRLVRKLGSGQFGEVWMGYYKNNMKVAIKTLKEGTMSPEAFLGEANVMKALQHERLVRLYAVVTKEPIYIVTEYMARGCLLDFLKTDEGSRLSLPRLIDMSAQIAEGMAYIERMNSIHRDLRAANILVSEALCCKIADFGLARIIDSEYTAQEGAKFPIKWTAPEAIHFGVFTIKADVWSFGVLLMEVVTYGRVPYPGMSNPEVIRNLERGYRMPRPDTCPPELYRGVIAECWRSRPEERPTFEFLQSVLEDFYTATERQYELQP

COC/C=C/C(=O)N1CC[C@@H](n2nc(-c3ccc(Oc4ccccc4)cc3)c(C(N)=O)c2N)C1 [SY-1530]
Inhibition (%), BLK (BLK): 53% | Inhibition (%), FLT3 (FLT3): 68% | Inhibition (%), FRK (FRK): 72% | Inhibition (%), FYN (FYN): 87% | Inhibition (%), ABL1 (ABL1): 8% | Inhibition (%), LYN A (LYN A): 87% | Inhibition (%), RET (RET): 57% | MTD (Beagle dog): 1000 mg/kg | MTD (Rat): 2000 mg/kg | Recovery of BTK activity after dilution (BTK): did not recover | Inhibitory potency on tumor growth (TMD8 xenografts; 30 mg/kg BID): better inhibitory potency on tumor growth than the same dose of ibrutinib | Anti-tumor activity (TMD8 xenografts; 30 mg/kg QD): comparable to that of ibrutinib at 100 mg/kg | Inhibitory potency on tumor growth (TMD8 xenografts; 100 mg/kg QD, versus ibrutinib 100 mg/kg QD): better inhibitory potency on tumor growth than ibrutinib | Mouse bodyweight (TMD8 xenografts; BID groups): moderate decrease | Tumor growth versus vehicle treated group (TMD8 xenografts; BID, SY-1530 30 or 10 mg/kg, ibrutinib 30 mg/kg): dramatically lower | Bodyweights of mice (TMD8 xenografts; QD groups): moderately changed | Concentration in plasma (TMD8 xenografts; QD groups, 2.5 h after administration on the last day): higher than those of ibrutinib | Tumor volume (TMD8 xenografts; oral, QD, 29 days): significant decrease in tumor volumes | AUC0–∞ ([1]; iv, 5 mg/kg): 4112 ng·h/mL | AUC0–∞ ([1]; po, 30 mg/kg): 4460 ng·h/mL | Cmax ([1]; po, 30 mg/kg): 658 ng/mL | F (%) ([1]; po, 30 mg/kg): 18.1% | Tmax ([1]; po, 30 mg/kg): 3.33 h | t½ ([1]; po, 30 mg/kg): 4.79 h | AUC0–∞ ([1]; po, 100 mg/kg): 6842 ng·h/mL | Cmax ([1]; po, 100 mg/kg): 1085 ng/mL | F (%) ([1]; po, 100 mg/kg): 8.32% | Tmax ([1]; po, 100 mg/kg): 1.75 h | t½ ([1]; po, 100 mg/kg): 3.08 h | AUC0–∞ ([1]; po, 300 mg/kg): 9257 ng·h/mL | Cmax ([1]; po, 300 mg/kg): 1129 ng/mL | F (%) ([1]; po, 300 mg/kg): 3.75% | Tmax ([1]; po, 300 mg/kg): 5.25 h | t½ ([1]; po, 300 mg/kg): 3.9 h | Plasma protein binding (%) [2]: 95.0% | Plasma protein binding (%) [3]: 94.8% | Plasma protein binding (%) [4]: 95.6% | Plasma protein binding (%) [5]: 95.5% | Ratio, EGFR (EGFR; [6]): 225 | IC50 (EGFR; read-out: IC50 (nM), EGFR, HTRF): 360 nM | Ratio, HER2 (HER2; [6]): > 2500 | IC50 (HER2; read-out: IC50 (nM), HER2, HTRF): > 10000 nM
